Row | SMILES | melting point
1 | N#Cc1c(F)cc(OCc2ccncc2)cc1OC(C(=O)O)c1ccccc1Cl (racemic) | 135 to 139 °C
2 | O=[N+]([O-])c1ccccc1-c1ccc(CNc2nc(C(F)(F)F)nc3c2CCCC3)cc1 | 150 to 151 °C
3 | CNC(=O)[C@@H](C[C@H](O)[C@H](CC(C)C)NC(=O)OC(C)(C)C)C(C)(C)O | 121 to 123 °C
4 | COc1ccc(-c2c(NC(=O)Nc3ccc(F)cc3F)cnc3ccc(Cl)cc23)c(OC)c1OC | 120 to 122 °C
5 | O=C([C@@H]1C[C@@H]2CCCC[C@@H]2N1)N1CCCC1 | 83 °C
6 | CC(Br)C(=O)NS(=O)(=O)c1ccc2c(c1)CC(C)(C)O2 (stereo not drawn) | 125 to 128 °C
7 | CCC(=O)Nc1cc(C(C)(C)C)[nH]n1 | 228 to 229 °C
8 | CCCCCCCCCCCCCCCCCCOc1ccc(C(=O)C=Cc2ccc(SC)cc2)cc1 | 104 °C
9 | CCc1nc2c(C#N)cccc2n1-c1ccc(CCNC(=O)NS(=O)(=O)c2ccc(C)cc2)cc1 | 95 to 103 °C
10 | Cc1cccc(Nc2cc(Nc3ccc(O)cc3)ncn2)c1 | 242 to 245 °C
11 | O=C1c2nccnc2C(O)N1c1ccc2ccc(Cl)nc2n1 (stereo not drawn) | 270 °C
12 | Cc1nc(Cl)c([N+](=O)[O-])c(NCC(C)(C)NC(=O)OC(C)(C)C)c1C | 97 to 100 °C
13 | COc1c(NS(=O)(=O)c2ccccc2)cccc1C(=O)Nc1ccccc1 | 190 to 194 °C
14 | COc1c(Nc2ncc(Cl)c(Nc3ccccc3S(=O)(=O)N3CCCC3)n2)ccc2c1CCCC(NCCO)C2 (stereo not drawn) | 79 to 82 °C
15 | C1=C(c2cc3ccccc3[nH]2)CCN(CCC2Cc3ccccc3C2)C1 | 175 to 176 °C
16 | O=C(CCc1ccc(S(=O)(=O)N(C(=O)c2c3ccccc3nc3ccccc23)c2ccc3c(c2)OCCO3)cc1)ON1C(=O)CCC1=O | 140 °C
17 | CCC(Oc1ccc(C(C)(C)CC)cc1C(C)(C)CC)C(=O)Nc1ccc(Cl)c(NC(=O)CC(=O)C(C)(C)Sc2ccccc2)c1 (stereo not drawn) | 73 to 75 °C
18 | O=C(O)c1ccc(C2(C(=O)Oc3ccc(C(=O)NO)cc3)CCCCC2)cc1 | 169 to 170 °C
19 | c1ccc(CNc2nc3c(c4[nH]c(Cc5ccccc5)nc24)CCCC3)cc1 | 199 to 200 °C
20 | Cc1nnc(-c2ccc3c(=O)n(CC(C)C)c(CN)c(-c4ccccc4)c3c2)o1 | 179 to 181 °C
21 | Cc1cccc(NC(=O)c2cc([N+](=O)[O-])ccc2NC(=O)CF)c1C | 236 to 239 °C
22 | NNc1ncnc(Nc2ccc(F)c(C(F)(F)F)c2)n1 | 181 to 182 °C
23 | CC(=O)c1cnc(-c2ccccc2)nc1-c1ccccc1 | 100 to 108 °C

Row | SMILES | melting point
24 | Cc1coc2cc(Cl)cc(Cl)c12 | 45 °C
25 | Cc1c(C(F)(F)F)nc[nH]c1=O | 175 to 176 °C
26 | O=C(NC(CO)c1ccccc1)c1ccccc1 (stereo not drawn) | 235 to 236 °C
27 | CC(=NO)c1ccnc(C)c1 | 151 to 152 °C
28 | Cc1cc2c(-c3ccccc3Cl)c(NC(=O)Nc3ccc(F)cc3F)c(=O)n(C)c2cc1C | 242 to 244 °C
29 | O=C(CCCCN1CCCCC1)c1ccc2c(c1)Sc1cc(C(=O)CCCCN3CCCCC3)ccc1O2 | 128 to 130 °C
30 | CC(C)c1ccc(Oc2ccc(C(=O)c3ccc(Oc4ccc(C(C)C)cc4)cc3)cc2)cc1 | 104 to 105 °C
31 | N#Cc1ccccc1Cn1cc(-c2ccnc(Cl)c2)n(-c2ccc(F)cc2)c1=O | 109 °C
32 | CN(Sc1ccccc1)C(=O)Oc1cccc2c1OC(C)(C)C2 | 66 °C
33 | C=CCc1c(OC)cc(C(=O)O)cc1OC | 56 to 57 °C
34 | Cc1ccccc1-n1c(CF)nc2ccc(N)cc2c1=O | 195 to 196 °C
35 | CCOP(=O)(Cc1cc(C2CCCCC2)c(O)c(C2CCCCC2)c1)OCC | 120 °C
36 | COC(=O)c1ccc(Cl)cc1SCCC(=O)O | 133 to 136 °C
37 | COc1ccc(OCC(O)COc2cccc(O)c2C(C)=O)cc1 (stereo not drawn) | 100 to 102 °C
38 | CC1(C)CC(NS(C)(=O)=O)c2ccccc21 (stereo not drawn) | 117 to 119 °C
39 | COc1ccc2[nH]c(SCc3ncc(Br)c(N4CCCCC4)c3C)nc2c1 | 90 to 92 °C
40 | CN(C)CC(=O)N(C)c1ccc(OCC(=O)N[C@@H](CC(N)=O)C(=O)N[C@@H](Cc2ccccc2)[C@H](O)C(=O)N2CCC[C@H]2C(=O)NC(C)(C)C)cc1 | 129 to 135 °C
41 | C#CCN1CCC(OC)(c2cc(F)cc(Sc3ccc(C(C)=NO)cc3)c2)C1 (stereo not drawn) | 97 to 99 °C
42 | O=C(NC1CCCCC1)C1=C(c2ccccc2)C(c2ccccc2)OC1=O (stereo not drawn) | 151 to 153 °C
43 | COCC(=O)Nc1cccc2c1C(=O)N(C1CCC(=O)NC1=O)C2=O (stereo not drawn) | 246 to 248 °C
44 | CCCCCCCCCCc1nnn[nH]1 | 57 to 59 °C
45 | O=[N+]([O-])c1c(O)ccc2cc(-c3ccc(O)cc3)ccc12 | 199 to 201 °C
46 | O=c1[nH]c2ncc(-c3ccc(O)cc3)nc2n1CCC1CCOCC1 | 276 to 277 °C

More lines, now with the values ahead:

Row | melting point | SMILES
47 | 109 to 110 °C | CCCCc1nccc2ccc(C(=O)N[C@@H](Cc3cc(F)cc(F)c3)[C@H](O)CNCc3cccc(CC)c3)cc12
48 | 184 to 186 °C | CCN(CCOC)C(=O)c1cc(-c2ccccc2)c(=O)[nH]c1-c1c(Cl)cccc1C#N
49 | 149 °C | O=Cc1cccc2ncc(-c3ccccc3)nc12
50 | 190 to 191 °C | CCS(=O)(=O)Nc1nc(CN2CCC(OC(c3ccccc3)c3ccccc3)CC2)cs1
51 | 131 to 134 °C | Cc1n[nH]c(/C=C/c2ccccc2)n1
52 | 115 to 117 °C | CC(=O)OCC1OC(n2cc(C3=C(c4c[nH]c5ncccc45)C(=O)N(COCc4ccccc4)C3=O)c3ccccc32)C(OC(C)=O)C(OC(C)=O)C1OC(C)=O (stereo not drawn)
53 | 149 to 150 °C | CCCCOC(=O)/C=C/c1ccc2c(=O)n(CC(C)C)c(CNC(=O)OC(C)(C)C)c(-c3ccc(Cl)cc3)c2c1
54 | 149 to 150 °C | CC(C)c1cc(O)cc2c1C(=O)N(CCl)S2(=O)=O
55 | 92 to 95 °C | O=C1N(Cc2ccc(C(F)(F)F)o2)c2ccc(F)cc2C1(CO)c1cc2c(cc1O)OCO2 (stereo not drawn)
56 | 8 to 9 °C | CC=CC(=O)C1C(C)CCCC1(C)C (stereo not drawn)
57 | 112 to 114 °C | CCCCCCCCCCCC1CC(=O)C(CCCCCC)C(=O)O1 (stereo not drawn)
58 | 201 to 203 °C | NC(=O)c1cccc(Nc2ccncc2)c1
59 | > 239 °C | COc1ccccc1CN[C@H]1CCCN[C@H]1c1ccsc1 (relative stereo)
60 | 145 to 148 °C | CC1CCCN1c1ccccc1NC(N)=S (stereo not drawn)
61 | 94 °C | CCc1ccc(C2CCCN2S(=O)(=O)c2ccc(Cl)cc2)cc1 (racemic)
62 | 100 °C | CC(C)OP(=O)(Cc1c(C(C)(C)C)cc(O)cc1C(C)(C)C)OC(C)C
63 | 96 to 106 °C | CC1CCOC(CBr)(c2ccc(Oc3ccccc3)cc2)O1 (stereo not drawn)
64 | 160 to 161 °C | O=C(OC(c1ccccc1)c1ccccc1)C1=CSC2C(=Cc3cn4c(n3)SCC4)C(=O)N12 (stereo not drawn)
65 | 200 °C | COc1cc(CCN2CCN(c3nsc4ccccc34)CC2)c(NC(=O)Nc2ccccc2C)cc1OC
66 | 115 to 117 °C | Cc1cccc(C(=O)C=CC(=O)O)c1
67 | 174 to 180 °C | Cc1nc(C)c(Cl)c(NCc2nccc(SCCCSc3sccc3[N+](=O)[O-])c2C)n1
68 | 113 to 114 °C | Cn1nc(C(F)(F)F)c(CS(=O)(=O)C2=NOC(C)(C)C2)c1OC1CCCC1

From a melting point compilation (Tetko et al.; mined from patent text by program, amines drawn as free bases though some values may be those of a salt)
